{
  "source": "patent US20080287486A1",
  "about": "“Prokinetic agent for bowel preparation” (Theravance, Inc., priority 2007, published 2008)",
  "tested_on": "healthy subjects",
  "experiment": "Measurement of onset of bowel movement in healthy subjects (stool diary card, rising single doses)",
  "type": "in vivo, human",
  "conditions": "for Mean Number of Bowel Movements / Median Time to First Bowel Movement: first 24 hour post dosing period; for Mean Number of Bowel Movements: standard deviation in parentheses; for Median Time to First Bowel Movement: gelatin capsules; for average Bristol score (stool consistency, 1 hard pellets to 7 liquid): placebo 3.2 (0.7)",
  "method": "Subjects were monitored for safety and evidence of prokinetic effects using a stool diary card. Time and consistency (Bristol score) of each bowel movement were recorded.",
  "data": [
    {"smiles": "CC(C)n1c(=O)c(C(=O)N[C@H]2C[C@H]3CC[C@@H](C2)N3C[C@@H](O)CN(C)S(C)(=O)=O)cc2ccccc21.Cl", "note": "[prokinetic agent, 1-isopropyl-2-oxo-1,2-dihydroquinoline-3-carboxylic acid {(1S,3R,5R)-8-[(R)-2-hydroxy-3-(methanesulfonyl-methyl-amino)propyl]-8-aza-bicyclo[3.2.1]oct-3-yl}amide hydrochloride]", "values": [
      {"measurement": "Mean Number of Bowel Movements", "setting": "10 mg dose", "result": "2.1 (1.2)"},
      {"measurement": "Median Time to First Bowel Movement", "setting": "10 mg dose", "result": 1.6, "unit": "h"},
      {"measurement": "Mean Number of Bowel Movements", "setting": "20 mg dose", "result": "2.0 (1.5)"},
      {"measurement": "Median Time to First Bowel Movement", "setting": "20 mg dose", "result": 1.0, "unit": "h"},
      {"measurement": "Mean Number of Bowel Movements", "setting": "30 mg dose", "result": "3.6 (2.4)"},
      {"measurement": "Median Time to First Bowel Movement", "setting": "30 mg dose", "result": 1.1, "unit": "h"},
      {"measurement": "Mean Number of Bowel Movements", "setting": "50 mg dose", "result": "5.9 (3.9)"},
      {"measurement": "Median Time to First Bowel Movement", "setting": "50 mg dose", "result": 1.1, "unit": "h"},
      {"measurement": "average Bristol score (stool consistency, 1 hard pellets to 7 liquid)", "setting": "50 mg dose", "result": "5.6 (0.9)"},
      {"measurement": "Mean Number of Bowel Movements", "setting": "70 mg dose", "result": "6.0 (3.0)"},
      {"measurement": "Median Time to First Bowel Movement", "setting": "70 mg dose", "result": 0.9, "unit": "h"},
      {"measurement": "average Bristol score (stool consistency, 1 hard pellets to 7 liquid)", "setting": "plateau at 20-70 mg", "result": "5.4-6.0"},
      {"measurement": "time at which the effect dissipated post dosing", "setting": "post dosing", "result": "24 to 48", "unit": "h"}
    ]}
  ]
}
